In US10233152B2, “LSD1 inhibitors” (Mirati Therapeutics, Inc., priority 2015, dated 2019):

Key:
MV4-11 cells = experiment: Inhibition of LSD1-mediated cell proliferation, CellTiter Glo luminescence assay; conditions: Homo sapiens, MV4-11, 168 h, read-out: Inhibition of LSD1-mediated Cell Proliferation IC50
Protocol: Inhibition of LSD1-mediated cellular proliferation by compounds of Formula (I) or Formula (II) was measured in a CellTiter Glo luminescence assay (Promega Corp), which determines the number of viable cells by quantitating the amount of ATP, using a BMG LabTech CLARIOStar instrument in accordance with the manufacturer's instructions. […] The plates were incubated at 37° C. for four days and thereafter 50 μl fresh medium containing the same concentration of test compound was added. The plates were incubated for an additional three days (Day 7). A baseline measurement, as described below, was taken for a time zero point at Day 0.
At Day 7, the supernatant was removed by aspiration and the plate was allowed to equilibrate to room temperature (˜15 min). The cells were lysed using 45 μl (30 μl for Day 0) of Cell Titer Glo reagent (Promega Corp). The plates were shaken for two minutes and incubated at room temperature for 30 minutes. The degree of inhibition of cell viability was determined using a spectrophotometric readout by measuring the luminescence at 340 nm and the EC50 concentration for each compound was calculated using Graph Pad Prism 4 software.

[1] = biological target: purified N-terminal truncated human LSD1 enzyme (aa 151-852) (Homo sapiens (Human), UniProt O60341); experiment: LSD1 fluorescence coupling enzymatic assay (horseradish peroxidase/Amplex Red); format: biochemical; conditions: 50 nM LSD1, 30 min pre-incubation, histone 3.3 peptide (aa 1-21), 10-point dose-response; read-out: Inhibition of LSD1 Activity IC50
Protocol: Briefly, compounds of the present invention were solubilized in DMSO and a series of 10, three-fold serial dilutions were made for each compound in 15% DMSO. The initial starting concentration for the serial dilutions of each compound was 10 μM.
An aliquot of each serial dilution of test compound was added to a 96 well plate containing 50 nM purified N-truncated LSD1 enzyme (RBC Cat# PDM-11-350), 50 mM Tris-HCl, pH 7.5, 0.05% CHAPS and 1% DMSO in a 10 microliter reaction volume. The plate was pre-incubated at room temperature for 30 min to which 10 M of histone 3.3 peptide (aa 1-21) was added to initiate the enzymatic reaction. The reaction mixture was incubated at room temperature for one hour. […] The IC50 value for each compound was determined from each 10-point dose-response curve using GraphPad Prism 4 software with a sigmodial dose response.

Compound | IC50 (MV4-11 cells) [nM] | IC50 [1] [nM]
C[N+]1(CCOc2ccc(CC(=O)NS(C)(=O)=O)cc2)CC(CN[C@@H]2C[C@H]2c2ccccc2)C1 (stereo partly drawn) [Example 98] | > 1000 | 
Brc1ccc(NCCN2CCC(N[C@@H]3C[C@H]3c3ccccc3)CC2)cc1 [Example 33, 1-(2-((4-bromophenyl)amino)ethyl)-N-((1R,2S)-2-phenylcyclopropyl)piperidin-4-amine] | < 1 | < 1
